Experimental data taken from ChEMBL document CHEMBL4229546, “Structure-based design and synthesis of 1H-pyrazolo[3,4-d]pyrimidin-4-amino derivatives as Janus kinase 3 inhibitors” (Bioorg Med Chem, 2018).

Assays:
[1] = target: Tyrosine-protein kinase JAK1 (Homo sapiens, UniProt P23458)
[2] = target: Non-receptor tyrosine-protein kinase TYK2 (Homo sapiens, UniProt P29597)
[3] = target: Tyrosine-protein kinase BTK (Homo sapiens, UniProt Q06187)
Tyrosine-protein kinase BTK, sequence (Q06187 whole entry): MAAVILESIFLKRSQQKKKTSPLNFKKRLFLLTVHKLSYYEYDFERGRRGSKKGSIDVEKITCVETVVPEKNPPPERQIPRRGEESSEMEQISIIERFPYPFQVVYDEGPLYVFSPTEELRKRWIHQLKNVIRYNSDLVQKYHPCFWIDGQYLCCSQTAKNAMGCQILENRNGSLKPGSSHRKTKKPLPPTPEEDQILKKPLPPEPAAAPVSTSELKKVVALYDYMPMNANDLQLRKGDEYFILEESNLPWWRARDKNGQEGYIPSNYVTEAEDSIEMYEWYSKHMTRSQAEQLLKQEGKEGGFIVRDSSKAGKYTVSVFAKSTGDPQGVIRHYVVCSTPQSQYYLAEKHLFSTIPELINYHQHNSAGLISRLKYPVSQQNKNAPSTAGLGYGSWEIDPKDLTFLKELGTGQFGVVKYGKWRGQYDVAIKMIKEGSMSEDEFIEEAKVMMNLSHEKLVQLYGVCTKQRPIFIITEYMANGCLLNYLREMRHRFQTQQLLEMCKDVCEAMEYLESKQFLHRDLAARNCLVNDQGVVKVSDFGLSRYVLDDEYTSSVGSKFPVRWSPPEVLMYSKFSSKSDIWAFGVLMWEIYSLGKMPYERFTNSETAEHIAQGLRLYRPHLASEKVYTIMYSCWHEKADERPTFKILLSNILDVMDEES

Non-receptor tyrosine-protein kinase TYK2, sequence (P29597 whole entry): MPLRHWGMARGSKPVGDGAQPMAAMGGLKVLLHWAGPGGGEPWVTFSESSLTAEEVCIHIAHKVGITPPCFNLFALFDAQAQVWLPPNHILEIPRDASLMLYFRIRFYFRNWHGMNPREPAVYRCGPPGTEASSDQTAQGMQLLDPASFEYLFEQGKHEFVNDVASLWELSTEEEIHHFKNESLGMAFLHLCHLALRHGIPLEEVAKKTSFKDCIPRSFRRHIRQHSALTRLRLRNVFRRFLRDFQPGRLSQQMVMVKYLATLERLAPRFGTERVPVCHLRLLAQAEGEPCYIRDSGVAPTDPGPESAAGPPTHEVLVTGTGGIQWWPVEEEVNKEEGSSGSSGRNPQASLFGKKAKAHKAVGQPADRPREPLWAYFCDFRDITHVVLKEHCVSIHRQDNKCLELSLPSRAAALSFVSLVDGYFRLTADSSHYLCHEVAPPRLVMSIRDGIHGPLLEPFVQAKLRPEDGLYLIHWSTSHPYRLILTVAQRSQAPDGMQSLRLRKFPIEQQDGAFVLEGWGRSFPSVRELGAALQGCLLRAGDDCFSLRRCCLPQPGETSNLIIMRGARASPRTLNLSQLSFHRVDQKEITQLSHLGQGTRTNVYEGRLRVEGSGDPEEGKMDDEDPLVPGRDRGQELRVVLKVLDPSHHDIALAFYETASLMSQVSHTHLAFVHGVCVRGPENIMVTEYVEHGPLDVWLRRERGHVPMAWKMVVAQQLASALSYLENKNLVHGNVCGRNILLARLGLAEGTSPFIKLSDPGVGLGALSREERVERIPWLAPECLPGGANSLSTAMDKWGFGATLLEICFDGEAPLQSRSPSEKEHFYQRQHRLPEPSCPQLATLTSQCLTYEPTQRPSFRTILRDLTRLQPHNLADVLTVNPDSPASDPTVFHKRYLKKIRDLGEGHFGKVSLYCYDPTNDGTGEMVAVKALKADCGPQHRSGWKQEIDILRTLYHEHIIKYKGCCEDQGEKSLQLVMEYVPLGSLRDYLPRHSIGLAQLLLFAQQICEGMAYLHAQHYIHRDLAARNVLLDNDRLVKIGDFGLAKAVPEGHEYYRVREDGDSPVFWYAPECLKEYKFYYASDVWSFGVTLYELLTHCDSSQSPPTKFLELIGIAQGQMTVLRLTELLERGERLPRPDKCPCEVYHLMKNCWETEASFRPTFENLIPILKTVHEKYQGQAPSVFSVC
Tyrosine-protein kinase JAK1, sequence (P23458 whole entry): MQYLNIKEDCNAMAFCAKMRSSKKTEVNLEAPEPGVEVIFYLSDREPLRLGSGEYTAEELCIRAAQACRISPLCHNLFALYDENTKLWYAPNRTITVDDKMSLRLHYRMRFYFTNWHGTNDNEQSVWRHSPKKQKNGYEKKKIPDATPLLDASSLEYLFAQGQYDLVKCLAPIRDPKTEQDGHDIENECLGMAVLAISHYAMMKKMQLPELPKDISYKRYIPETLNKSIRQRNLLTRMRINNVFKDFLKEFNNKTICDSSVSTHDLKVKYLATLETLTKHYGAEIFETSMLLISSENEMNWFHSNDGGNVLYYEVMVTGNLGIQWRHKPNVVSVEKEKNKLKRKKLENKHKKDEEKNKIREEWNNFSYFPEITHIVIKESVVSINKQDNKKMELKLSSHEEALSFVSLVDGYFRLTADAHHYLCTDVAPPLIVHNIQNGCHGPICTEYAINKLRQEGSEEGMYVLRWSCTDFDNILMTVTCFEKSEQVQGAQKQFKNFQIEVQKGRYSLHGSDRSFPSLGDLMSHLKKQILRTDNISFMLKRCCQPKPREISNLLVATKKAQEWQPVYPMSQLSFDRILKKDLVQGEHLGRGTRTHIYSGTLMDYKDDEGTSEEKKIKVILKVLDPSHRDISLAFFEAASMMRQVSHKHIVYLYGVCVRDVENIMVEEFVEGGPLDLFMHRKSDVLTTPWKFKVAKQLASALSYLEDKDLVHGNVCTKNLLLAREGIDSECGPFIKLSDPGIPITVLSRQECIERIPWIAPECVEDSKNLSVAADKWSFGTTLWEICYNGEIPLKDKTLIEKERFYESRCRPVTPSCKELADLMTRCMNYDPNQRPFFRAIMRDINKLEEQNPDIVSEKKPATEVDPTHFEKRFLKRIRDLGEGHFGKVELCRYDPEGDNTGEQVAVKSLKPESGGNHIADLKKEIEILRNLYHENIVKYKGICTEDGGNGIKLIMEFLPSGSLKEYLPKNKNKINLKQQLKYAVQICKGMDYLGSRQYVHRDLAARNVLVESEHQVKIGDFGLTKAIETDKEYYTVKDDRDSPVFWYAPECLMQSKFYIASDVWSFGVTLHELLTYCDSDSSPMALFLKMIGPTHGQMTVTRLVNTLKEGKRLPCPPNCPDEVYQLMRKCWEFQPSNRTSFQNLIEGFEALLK

IC50 [1] [nM]	IC50 [2] [nM]	IC50 [3] [nM]	SMILES
1950	3960	481	C=CC(=O)N1CCCC(Cn2nc(-c3cnn(C)c3)c3c(N)ncnc32)C1 (stereo not given)
147	2350	–	Cn1cc(-c2nn(CC3CCCN(C(=O)CC#N)C3)c3ncnc(N)c23)cn1 (stereo not given)
1350	2120	159	C=CC(=O)N1CCCC(n2nc(-c3cnn(CCOC)c3)c3c(N)ncnc32)C1 (stereo not given)
2290	–	–	CN(C)CC(=O)N1CCCC(Cn2nc(-c3cnn(C)c3)c3c(N)ncnc32)C1 (stereo not given)
1670	3300	420	C=CC(=O)N1CCCC(Cn2nc(-c3cnn(CCOC)c3)c3c(N)ncnc32)C1 (stereo not given)
1070	1720	126	C=CC(=O)N1CCC(n2nc(-c3cnn(CCOC)c3)c3c(N)ncnc32)C1 (stereo not given)
497	3220	–	COCCn1cc(-c2nn(C3CCCN(C(=O)CC#N)C3)c3ncnc(N)c23)cn1 (stereo not given)
497	> 3000	–	COCCn1cc(-c2nn(CC3CCCN(C(=O)CC#N)C3)c3ncnc(N)c23)cn1 (stereo not given)

Second part, the molecule before the results:

SMILES	IC50 [1] [nM]	IC50 [2] [nM]	IC50 [3] [nM]
CN(C)CC(=O)N1CCCC(n2nc(-c3cnn(C)c3)c3c(N)ncnc32)C1 (stereo not given)	1370	–	–
C=CC(=O)N1CCCC(n2nc(-c3cnn(C)c3)c3c(N)ncnc32)C1 (stereo not given)	618	1180	180
C=CC(=O)N1CCC(n2nc(-c3cnn(C)c3)c3c(N)ncnc32)C1 (stereo not given)	694	1420	203
Cn1cc(-c2nn(C3CCCN(C(=O)CC#N)C3)c3ncnc(N)c23)cn1 (stereo not given)	342	2430	–
COCCn1cc(-c2nn(C3CCN(C#N)CC3)c3ncnc(N)c23)cn1	112	–	–
Cn1cc(-c2nn(C3CCN(C#N)CC3)c3ncnc(N)c23)cn1	165	–	–
